We go through two compounds from US9581729B2, “Compound, photosensitive resin composition comprising the same and color filter” (Samsung SDI Co., Ltd., priority 2015, dated 2017).

The data set is described as follows: Solubility in dilution solvent (PGMEA). Type of data set: physicochemical. To be noted: 25° C., 100 rpm, 1 hour. The method, then: A dilution solvent (PGMEA) is respectively added to 0.5 g of each compound according to Synthesis Examples 6 to 13 and Comparative Synthesis Examples 1 and 2, and each solution is agitated with a mixrotor (Mixrotor VMR-5, Iuchi Seieido Co., Ltd.) at 25° C. and 100 rpm for 1 hour, and solubility result of each compound is provided in Table 1. Solubility Evaluation Reference Dissolution of a compound (a solute) in an amount of greater than or equal to 10 wt % based on the total weight of the dilution solvent: ∘ Dissolution of a compound (a solute) in an amount ranging from greater than or equal 5 wt % and less than 10 wt % based on the total weight of the dilution solvent: Δ Dissolution of a compound (a solute) in an amount ranging from less than 5 wt % based on the total weight of the dilution solvent: X

Turning to `Clc1c(Cl)c2c(c(Cl)c1Oc1ccccc1)/C1=N/c3c4c(Cl)c(Cl)c(Oc5ccccc5)c(Cl)c4c4[n]3[Zn][n]3/c(c5c(Cl)c(Cl)c(Oc6ccccc6)c(Cl)c5/c3=N/C2=N1)=N\C1=NC(=N\4)/c2c(Cl)c(Oc3ccccc3)c(Cl)c(Cl)c21` [Comparative Synthesis Example 1], the Solubility entry was “Δ (Dissolution of a compound (a solute) in an amount ranging from greater than or equal 5 wt % and less than 10 wt % based on the total weight of the dilution solvent)”.

With `CCCCCOc1c(Cl)c(Cl)c2c(c1Cl)C1=NC/2=N\c2c3c(Cl)c(Cl)c(OCCCCC)c(Cl)c3c3[n]2[Zn][n]2/c(c4c(Cl)c(Cl)c(OCCCCC)c(Cl)c4/c2=N/1)=N\C1=NC(=N\3)/c2c(Cl)c(Cl)c(OCCCCC)c(Cl)c21` [Comparative Synthesis Example 2], the Solubility entry is “Δ (Dissolution of a compound (a solute) in an amount ranging from greater than or equal 5 wt % and less than 10 wt % based on the total weight of the dilution solvent)”.
